Reference: patent US5659048A, “Chiral [[(2-bromoethyl)-amino]methyl]-2-nitro-1H-imidazol-1-ethanol and related compounds” (priority 1995, dated 1997)

Assays:
B6 C3 F1 mice = test: Mouse Toxicity Studies (14-day lethality, LD10 by probit analysis); assay type: in vivo
Description: B6 C3 F1 mice were treated with varying doses of test agent by either intraperitoneal, intravenous, or oral administration. […] The maximum tolerated dose was established as the dose equal to or less than the LD10 as determined from a probit analysis.

KHT fibrosarcoma = test: Radiosensitizing efficacy in mice: excision assay, clonogenic survival of KHT fibrosarcomas; assay type: in vivo, B6 C3 F1 mice; details: 250 mg/kg IP, 30 min before 10 Gray whole body irradiation
Description: Clonogenic survival of KHT fibrosarcomas was determined in assays employing B6 C3 F1 mice. Tumors were implanted subcutaneously by trocar. Nine days postimplantation, when tumors ranged from 200 to 400 mg in size, mice were treated IP with a range of drug doses including the maximum tolerated dose of the test agent. Thirty minutes later mice received whole body irradiation at a dose of 10 Gray, delivered at a rate of 2 Gray/minute with a 320 kV x-ray machine. Twenty-four hours after treatment, animals were sacrificed, and tumors were excised. Tumors were enzymatically digested to give single cell suspensions prior to plating for cell survival by clonogenic assay.

SCC7 carcinoma = test: Radiosensitizing efficacy in mice: tumor growth delay, SCC7 carcinoma; assay type: in vivo, B6 C3 F1 mice; details: IP at maximum tolerated dose every 12 hours, 30 min before 2.5 Gray, 8 fractions
Description: Tumor growth delay was assessed in B6 C3 F1 mice implanted IM with 5×10^5 SCC7 carcinoma tumor cells. On Days 10 through 13 post tumor implantation, mice were treated every 12 hours with the maximum tolerated dose of test agent (determined from a 10-day multiple treatment schedule). Thirty minutes later, mice were irradiated at the tumor site with a 2.5 Gray dose of x-rays. Upon completion of this 8 fraction protocol, tumor growth was monitored daily.

[1] = Emesis Studies in beagle dogs; assay type: in vivo; details: dog, in vivo; IV, 10-minute infusion, 6-hour postdosing scoring; threshold dose at which 50% of animals exhibited emetic response; read-out: Emesis (Dogs) ED50
Description: (§1) Beagle dogs (approximately 10 kg body weight) were treated intravenously with a 10-minute infusion of 20 mL of the test compound prepared in sodium lactate buffer, pH 4.0. Dogs were scored over a 6-hour postdosing period for both the number of emetic episodes and the relative volume. Antiemetic therapy consisted of a 5-minute infusion of ondansetron, administered at a dose of 0.3 mg/kg 30 minutes prior to treatment with the nitroimidazole.

beagle dogs = test: Emesis Studies in beagle dogs; assay type: in vivo; details: dogs, IV; result in words
Description: as §1

Structure (SMILES)	LD10 (B6 C3 F1 mice; IP) [mg/kg]	LD10 (B6 C3 F1 mice; IV) [mg/kg]	LD10 (B6 C3 F1 mice; PO) [mg/kg]	Excision (250 mg/kg), % control (KHT fibrosarcoma) [% control]	Growth Delay Fold Enhancement (SCC7 carcinoma) [Fold]	TD50 at 6 h [1] [mg/kg]	Emesis relative to (S) isomer or racemic mixture (beagle dogs)
Br.O=[N+]([O-])c1nccn1C[C@H](O)CNCCBr [(R), (R)-(+)-α-[[(2-Bromoethyl)amino]methyl]-2-nitro-1H-imidazole-1-ethanol, monohydrobromide]	850	900	1100	11	2.1	12	significantly less emesis than the (S) isomer or the mixture
Br.O=[N+]([O-])c1nccn1C[C@@H](O)CNCCBr [(S), (S)-(-)-α-[[(2-Bromoethyl)amino]methyl]-2-nitro-1H-imidazole-1-ethanol, monohydrobromide]	850	900	1100	11	1.8	4	
